These are literature values, as cited in US20170119663A1, “NOVEL GASTRO-RETENTIVE DOSAGE FORMS” (Grünenthal GmbH, priority 2010, published 2017).

SMILES strings stand for the structures. Read-outs that look alike come from different tables or passages of the source.

Turning to `CC(C)C[C@H](CN)CC(=O)O` [pregabalin], the absorption window entry (small intestine and ascending colon) was “around six”.
Regarding `NCC1(CC(=O)O)CCCCC1` [gabapentin], the oral bioavailability result (dose in the range of 300-400 mg) is “approximately 60%” and the oral bioavailability (dose of 1600 mg) is 35%.
